Assay results: patent US20210338615A1, “Inhibition of Acetyl-CoA Metabolism for Treatment and Prevention of Immune System Diseases and Disorders” (Memorial Sloan Kettering Cancer Center, priority 2016, published 2021)

Assays:
H3K9Ac at the Ifng locus = assay: H3K9Ac at the Ifng promoter and CNS22 enhancer regions by ChIP-qPCR; format: cell-based, mouse; conditions: KO Th1 cells, 20 mM sodium acetate or 30 nM TSA for 24 h; normalized to Cd3e promoter
Method: Enrichment was normalized to H3K9Ac at the Cd3e promoter region. […] Cells were subsequently re-stimulated with phorbol myristate acetate (PMA) and ionomycin for 4 h.
In panels A-D, naïve CD4^+ T cells isolated from wild-type (WT) mice were differentiated under Th1 conditions for 2 days. […] Subsequently, cells were re-stimulated with phorbol myristate acetate (PMA) and ionomycin for 4 h. IFN-γ expression was determined by intracellular staining. […] Cell viability was determined by LIVE/DEAD staining. […] Data represent mean±SD, n=3. Two-tailed unpaired t-test, *P≤0.05; **P≤0.01; ns, not significant. […] Acetyl-CoA levels were measured by an acetyl-CoA assay kit. Data represent mean±SD, n=3. Two-tailed unpaired t-test, **P≤0.01. […] The expression of T-bet was determined by flow cytometry. Panels G and H show naïve CD4^+ T cells isolated from WT or KO mice, differentiated under Th1 conditions for 3 days. […] The expression of IFN-γ (panel G) and T-bet (panel H) were determined by flow cytometry. […]
Chromatin immunoprecipitations were performed with SimpleChIP Enzymatic Chromatin IP Kit (Cell Signaling) according to manufacturer's instructions. […] The relative abundance of precipitated DNA fragments was analyzed by qPCR using Power SYBR Green PCR Master Mix (Qiagen) and the enrichments were normalized to Cd3e promoter.

[1] = test system: CD4+ T cells differentiated under Th1 conditions; assay: IFN-γ expression in CD4+ T cells differentiated under Th1 conditions (intracellular staining, flow cytometry); format: cell-based, mouse; conditions: for IFN-γ expression in KO T cells: LDHA-deficient (KO) Th1 cells, 20 mM sodium acetate or 30 nM TSA for another 24 h, PMA and ionomycin 4 h; for IFN-γ expression: WT naïve CD4+ T cells under Th1 conditions, inhibitor added for another 24 h, re-stimulated with PMA and ionomycin 4 h
Method: Panels D and E show naïve WT or KO CD4^+ T cells differentiated under Th1 conditions for 3 days, and either left untreated or supplemented with 20 mM sodium acetate for another 24 h.
(§1) IFN-γ expression was determined by intracellular staining. […] Cell viability was determined by LIVE/DEAD staining. […] Data represent mean±SD, n=3. […] Data represent mean±SD, n=3. Two-tailed unpaired t-test, **P≤0.01. […] Data represent mean±SD, n=4.
Naïve CD4^+ T cells isolated from wild-type mice were differentiated under Th1 conditions for 3 days. DMSO or indicated concentration of Fx11 was added to the cell culture for another 24 h, with or without 20 mM sodium acetate. […] IFN-γ expression was determined by intracellular staining. Representative plots (panel A) and quantification (panel B) are shown.
(§2) Cells from thymi, spleens, and lymph nodes were depleted of erythrocytes by hypotonic lysis. Cells were incubated with specific antibodies for 15 min on ice in the presence of anti-FcγR to block FcγR binding. Dead cells were excluded by DAPI (Invitrogen) staining. To determine cytokine expression, cells were stimulated with 50 ng/mL phorbol 12-myristate 13-acetate (Sigma) and 1 μM ionomycin (Sigma) in the presence of GolgiStop (BD Biosciences) for 4 h. After stimulation, cells were stained with cell-surface marker antibodies and LIVE/DEAD Fixable dye (Invitrogen) to exclude dead cells, fixed, and permeabilized with a transcription factor staining kit (eBioscience), followed by staining with cytokine antibodies. All samples were acquired with an LSR II flow cytometer (Becton, Dickinson) and analyzed with FlowJo software (TreeStar).
CD62L^+CD44^−CD25^−CD4^+ T cells were isolated from spleen and peripheral lymph nodes of wild-type (WT) or CD4^CreLdha^fl/fl (KO) mice with naïve CD4^+ T cells isolation kits (Miltenyi or Stem Cell). Purity was checked by flow cytometry, and was over 98%. For in vitro T cell activation, 0.2-0.5×10^6 naïve CD4^+ T cells were cultured on a 24-well plate pre-coated with 5 μg/mL anti-CD3 in T cell medium [RPMI/1640, 10% fetal bovine serum, 2 mM glutamine, 1 mM sodium pyruvate, 1× non-essential amino acid (Invitrogen), 10 mM HEPES, 55 μM 2-mercaptoethanol, 100 U/ml penicillin, […]] supplemented with 2 μg/mL anti-CD28 and 100 U/ml IL-2. For T helper 1 (Th1) cell differentiation, T cells were cultured with the addition of 10 μg/mL anti-IL-4 and 10 ng/mL IL-12. For T helper 17 (Th17) cell differentiation, T cells were cultured with the addition of 10 μg/mL anti-IL-4, 10 μg/mL anti-IFN-γ, 10 μg/mL anti-IL-2, 2 ng/ml TGF-β, 10 ng/ml IL-6, 10 ng/ml IL-23, and 10 ng/mL […]. For cell proliferation experiments, naïve CD4^+ T cells were labeled with CFSE (Invitrogen), and activated on a 24-well plate, pre-coated with 5 μg/mL anti-CD3, in T cell culture medium supplemented with 2 μg/mL anti-CD28 and 100 U/mL IL-2. CFSE dilution was assessed by flow cytometry on days 1, 2, and 3 post-activation. For sodium acetate and TSA treatment experiment, cells were differentiated under Th1 conditions for 3 days, and cultured in T cell medium supplemented with 100 U/mL IL-2, 10 μg/mL anti-IL-4, 10 ng/mL IL-12, and the indicated concentrations of sodium acetate (Sigma), TSA (Promega), or […] for 24 h. For ATP citrate lyase (ACL) inhibitor experiments, naïve CD4^+ T cells isolated from WT mice were cultured under Th1 conditions for 2 days or under Th17 conditions for 3 days. […]

[2] = test system: CD4CreLdhafl/fl (KO) CD4+ T cells differentiated under Th1 conditions; conditions: 20 mM sodium acetate for 24 h
Method: In panels A-D, naïve CD4^+ T cells isolated from wild-type (WT) mice were differentiated under Th1 conditions for 2 days. DMSO or the ATP citrate lyase inhibitor (ACLi) BMS-303141 was added to the culture for another 24 h. Subsequently, cells were re-stimulated with phorbol myristate acetate (PMA) and ionomycin for 4 h. IFN-γ expression was determined by intracellular staining. […] Cell viability was determined by LIVE/DEAD staining. […] Data represent mean±SD, n=3. Two-tailed unpaired t-test, *P≤0.05; **P≤0.01; ns, not significant. […] Acetyl-CoA levels were measured by an acetyl-CoA assay kit. Data represent mean±SD, n=3. Two-tailed unpaired t-test, **P≤0.01. […] The expression of T-bet was determined by flow cytometry. Panels G and H show naïve CD4^+ T cells isolated from WT or KO mice, differentiated under Th1 conditions for 3 days. […] The expression of IFN-γ (panel G) and T-bet (panel H) were determined by flow cytometry. […]
For measurement of cytosolic acetyl-CoA, naïve CD4^+ T cells were differentiated under Th1 conditions for 2 days and then cultured in fresh T cell medium for another 24 h. […] Freshly isolated naïve WT and KO CD4^+ T cells were rested in T cell medium with 10 ng/mL IL-7 for 4 h at 37° C. in the incubator, and the level of acetyl-CoA was measured.

[3] = test system: CD4+ T cells differentiated under Th1 conditions; assay: T-bet expression in Th1 cells by flow cytometry; format: cell-based, mouse; conditions: WT or KO Th1 cells, 20 mM sodium acetate or 30 nM TSA for another 24 h
Method: as §1, §2
CD62L^+CD44^−CD25^−CD4^+ T cells were isolated from spleen and peripheral lymph nodes of wild-type (WT) or CD4^CreLdha^fl/fl (KO) mice with naïve CD4^+ T cells isolation kits (Miltenyi or Stem Cell). […] CFSE dilution was assessed by flow cytometry on days 1, 2, and 3 post-activation. […]

[4] = test system: experimental autoimmune encephalomyelitis (EAE); assay: Experimental autoimmune encephalomyelitis (EAE), mouse model of multiple sclerosis; format: in vivo; conditions: WT mice, MOG peptide with CFA; 35 mg/kg/day intraperitoneally daily from day 7
Method: In panels A-C, naïve WT or LDHA-deficient (KO) CD4^+ T cells were differentiated under Th17 conditions for 3 days. Cells were re-stimulated with PMA/ionomycin for 4 h. […] Data represent mean±SD, n=2. Two-tailed unpaired t-test, **P≤0.01. […] In panels D-F, WT or KO mice were subjected to EAE induction by immunization with MOG peptide with CFA. Clinical scoring in panel D: 0, no overt signs of disease; 1, limp tail; 2, partial hind-limb paralysis; 3, total hind-limb paralysis; 4, hind-limb paralysis and 75% body paralysis; 5, complete body paralysis, or moribund state, or death by EAE, or sacrifice for humane reasons. […] IL-17a and IFN-γ protein expression were examined by flow cytometry. Panel F is quantification of panel E; data represent mean±SD, n=4. Two-tailed unpaired t-test, ***P≤0.001. […] Naïve WT or KO CD4^+ T cells were differentiated under Th17 conditions for 3 days, and BMS 303141 was included in the culture for another 24 hours. Cells were re-stimulated with PMA/ionomycin for 4 h. IL-17a protein expression was examined by flow cytometry. […] WT mice were subjected to EAE induction by immunization with MOG peptide with CFA. BMS 303141 (35 mg/kg/day) was intraperitoneally injected daily, starting from day 7. Clinical scoring was the same as in panel D.

[5] = test system: CD4+ T cells differentiated under Th17 conditions; assay: IL-17a expression in CD4+ T cells differentiated under Th17 conditions (flow cytometry); format: cell-based, mouse
Method: Naïve WT or LDHA-deficient (KO) CD4^+ T cells were differentiated under Th17 conditions for 4 days. Increasing doses of GNE-140 were also included in the WT T cell culture. Cell viability was determined by a live/dead cell dye, and the percentage of live cell population is shown. In addition, cells were re-stimulated with PMA/ionomycin for 4 h. IL-17a and Foxp3 protein expression was examined by flow cytometry, and used as readouts for Th17 and Treg cell differentiation, respectively.
In panels A-C, naïve WT or LDHA-deficient (KO) CD4^+ T cells were differentiated under Th17 conditions for 3 days. Cells were re-stimulated with PMA/ionomycin for 4 h. […] Data represent mean±SD, n=2. Two-tailed unpaired t-test, **P≤0.01. […] In panels D-F, WT or KO mice were subjected to EAE induction by immunization with MOG peptide with CFA. […] Panel F is quantification of panel E; data represent mean±SD, n=4. […]
Naïve CD4 T cells (2.5×10^4) were isolated from spleen and peripheral lymph nodes of Ldha^fl/fl (WT) and CD4^CreLdha^fl/fl (KO) mice. […] Cytokines and transcription factors were analyzed by flow cytometry.
Cells from thymi, spleens, and lymph nodes were depleted of erythrocytes by hypotonic lysis. […] All samples were acquired with an LSR II flow cytometer (Becton, Dickinson) and analyzed with FlowJo software (TreeStar). […]

SMILES	H3K9Ac in the Ifng locus (H3K9Ac at the Ifng locus)	IFN-γ expression in KO T cells [1]	T-bet expression [3]	IFN-γ expression [1]	other results
CC(=O)[O-].[Na+] [Acetate, sodium acetate]	normalization of H3K9Ac in Ifng promoter and enhancer regions	corrected IFN-γ expression in KO T cells	without affecting T-bet expression		acetyl-CoA production [2]: augmented acetyl-CoA production
COc1ccc(-c2ccccc2)cc1NS(=O)(=O)c1cc(Cl)cc(Cl)c1O [BMS 303141, 3,5-dichloro-2-hydroxy-N-(4-methoxy[1,1′-biphenyl]-3-yl)-benzenesulfonamide]				suppresses IFN-γ expression	protection from EAE (clinical scoring) [4]: completely protected mice from EAE; IL-17a production ([5]; Th17 conditions for 3 days, BMS 303141 in the culture for another 24 hours, PMA/ionomycin 4 h): repressed IL-17a production
CCCc1c(O)c(O)c(C(=O)O)c2cc(Cc3ccccc3)c(C)cc12 [FX11]				dose-dependently inhibited IFN-γ expression	inhibitory effect on IFN-γ expression when supplementing cells with acetate ([1]; WT Th1 cells, FX11 for 24 h with 20 mM sodium acetate): fully nullified
O=C1N[C@](c2ccc(N3CCOCC3)cc2)(c2ccsc2)CC(O)=C1Sc1ccccc1Cl [GNE-140, (2R)-5-(2-chlorophenyl)sulfanyl-4-hydroxy-2-(4-morpholin-4-ylphenyl)-2-thiophen-3-yl-1,3-dihydropyridin-6-one]					IL-17A expression ([5]; WT T cells under Th17 conditions with APCs, 0.3, 10 or 30 μM GNE-140, harvested day 4, PMA/ionomycin 4 h): inhibited IL-17A expression in WT T cells in a dose-dependent manner
CC(/C=C/C(=O)NO)=C\[C@@H](C)C(=O)c1ccc(N(C)C)cc1 [TSA]	increased H3K9Ac in the Ifng locus	rectified IFN-γ expression in KO T cells	without affecting T-bet expression		
